Results on 27 compounds are retold here after US12527774B2, “Estrogen-related receptor alpha modulators” (LEAD PHARMA HOLDING B.V., priority 2019, dated 2026).

ERRα ligand binding domain (ERRα-LBD), sequence (P11474 193-421): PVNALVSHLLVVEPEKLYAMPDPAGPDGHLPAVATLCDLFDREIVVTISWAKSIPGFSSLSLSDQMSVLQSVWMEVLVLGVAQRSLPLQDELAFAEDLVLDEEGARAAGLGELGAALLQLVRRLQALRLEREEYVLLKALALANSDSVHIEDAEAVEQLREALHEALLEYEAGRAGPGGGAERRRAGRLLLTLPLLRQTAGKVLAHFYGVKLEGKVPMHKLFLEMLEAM

In one assay the target is ERRα ligand binding domain (ERRα-LBD) (Homo sapiens (Human), UniProt P11474). Briefly: ERRα AlphaScreen Assay. The assay is classed as biochemical. Particulars: disruption of binding of ERRα-LBD protein to biotin-PGC1α-3 co-activator peptide. An excerpt:
This assay was based on the knowledge that nuclear receptors interact with cofactors in a ligand dependent matter. The sites of interaction have been mapped to LXXLL motifs that are present in the co-activator sequences. Short peptide sequences that contain the LXXLL motif mimic the behavior of full length co-activators.
The ERRα AlphaScreen Assay described here relies on the interaction of the co-activator peptide with purified bacterial-expressed ERRα ligand binding domain (ERRα-LBD); upon ligand binding the ERRα protein can undergo a conformational change resulting in a loss of co-activator binding.
Compounds of the present invention were tested for their ability to disrupt binding of ERRα-LBD protein to co-activator peptide using AlphaScreen® Technology (Perkin Elmer). ERRα-LBD protein was expressed in E. coli as a 6×His Small Ubiquitin-like Modifier (SUMO) fusion. Bacterial expressed 6His-SUMO-ERRα-LBD protein was purified using affinity chromatography. All experiments were performed at room temperature in 384-well white non-binding plates (Greiner) using 50 mM Tris-HCl pH 7.5, 100 mM NaCl, 0,1% Pluronic F-127, 0.05% BSA and 5 mM TCEP as the buffer. Final DMSO concentration was 1% in the assay. Compounds were assayed in triplicate and: incubated with 0.81 nM ERRα-LBD protein and 10 μg/mL streptavidin donor beads and 10 μg/mL Ni-chelate acceptor beads for 1 hour at room temperature; followed by a 2-hour incubation with 15 nM biotin-PGC1α-3 peptide (QRRPCSELLKYLTTNDDPP) corresponding to amino acids 202 to 220.
The AlphaScreen signal was measured using an Envision Xcite plate reader (Perkin Elmer). Data was normalized, and curve fitting analysis was performed in GraphPad Prism 7 using a four-parameter dose-response fit.
As multiple IC50 values were annotated for the same compound-protein pair, a mean pIC50 for each compound was determined.
Regarding `COc1cc(C2CC(=O)Nc3n[nH]cc32)ccc1COc1ccc(C(F)F)cc1C(F)F` (single isomer, unassigned; (-)) [Example 218, (−)-4-(4-{[2,4-bis(difluoromethyl)phenoxy]methyl}-3-methoxyphenyl)-2H,4H,5H,6H,7H-pyrazolo[3,4-b]pyridin-6-one], the “mean pIC50” value was ≥ 8.

`COc1cc(C2CC(=O)Nc3n[nH]cc32)ccc1COc1ccc(C)cc1C` (single isomer, unassigned; (-)) [Example 220, (−)-4-{4-[(2,4-dimethylphenoxy)methyl]-3-methoxyphenyl}-2H,4H,5H,6H,7H-pyrazolo[3,4-b]pyridin-6-one]: the “mean pIC50” value is reported as ≥ 8.

For `COc1cc(C2CC(=O)Nc3n[nH]cc32)ccc1OCc1ccccc1I` (stereo not drawn) [Example 23, 4-{4-[(2-iodophenyl)methoxy]-3-methoxyphenyl}-2H,4H,5H,6H, 7H-pyrazolo[3,4-b]pyridin-6-one], the “mean pIC50” value is ≥ 8.

Still in this assay, the particulars now being: disruption of binding of ERRα-LBD protein to biotin-PGC1α-3 co-activator peptide; read-out: mean pIC50 (converted).
`COc1cc(C2CC(=O)Nc3n[nH]cc32)ccc1COc1ccc(Cl)cc1C(F)(F)F` (single isomer, unassigned; (+)) [Example 193, (+)-4-(4-{[4-chloro-2-(trifluoromethyl)phenoxy]methyl}-3-methoxyphenyl)-2H,4H,5H,6H,7H-pyrazolo[3,4-b]pyridin-6-one]: the IC50 was 10 to 100 nM.

Take `COc1cc(C2CC(=O)Nc3n[nH]cc32)ccc1COc1ccc(C(F)F)cc1C(F)(F)F` (single isomer, unassigned; (+)) [Example 195, (+)-4-(4-{[4-(difluoromethyl)-2-(trifluoromethyl)phenoxy]methyl}-3-methoxyphenyl)-2H,4H,5H,6H,7H-pyrazolo[3,4-b]pyridin-6-one]: the IC50 was 10 to 100 nM.

Regarding `COc1cc(C2CC(=O)Nc3n[nH]cc32)ccc1OCc1ccc(C(C)=O)cc1C(F)(F)F` (single isomer, unassigned; (+)) [Example 199, (+)-4-(4-{[4-acetyl-2-(trifluoromethyl)phenyl]methoxy}-3-methoxyphenyl)-2H,4H,5H,6H,7H-pyrazolo[3,4-b]pyridin-6-one], the IC50 is 100 to 1000 nM.

Turning to `COc1ccc(COc2ccc(C3CC(=O)Nc4[nH]nnc43)cc2OC)c(C(F)(F)F)c1` (single isomer, unassigned; (+)) [Example 201, (+)-7-(3-methoxy-4-{[4-methoxy-2-(trifluoromethyl)phenyl]methoxy}phenyl)-3H,4H,5H,6H,7H-[1,2,3]triazolo[4,5-b]pyridin-5-one], the IC50 was 10 to 100 nM.

For the compound `COc1cc(C2CC(=O)Nc3n[nH]cc32)ccc1OCc1ccc(N)cc1C(F)(F)F` (single isomer, unassigned; (+)) [Example 203, (+)-4-(4-{[4-amino-2-(trifluoromethyl)phenyl]methoxy}-3-methoxyphenyl)-2H,4H,5H,6H,7H-pyrazolo[3,4-b]pyridin-6-one], the IC50 is 10 to 100 nM.

Take `COc1cc(C2CC(=O)Nc3n[nH]cc32)ccc1OCc1ccc(O)cc1C(F)(F)F` (single isomer, unassigned; (+)) [Example 209, (+)-4-(4-{[4-hydroxy-2-(trifluoromethyl)phenyl]methoxy}-3-methoxyphenyl)-2H,4H,5H,6H,7H-pyrazolo[3,4-b]pyridin-6-one]: the IC50 is 10 to 100 nM.

As for `COc1cc(C2CC(=O)Nc3n[nH]cc32)ccc1COc1ccc(C)cc1C(F)(F)F` (single isomer, unassigned; (+)) [Example 213, (+)-4-(3-methoxy-4-{[4-methyl-2-(trifluoromethyl)phenoxy]methyl}phenyl)-2H,4H,5H,6H,7H-pyrazolo[3,4-b]pyridin-6-one], the IC50 is 10 to 100 nM.

Consider `COc1cc(C2CC(=O)Nc3n[nH]cc32)ccc1COc1ccc(C(F)(F)F)cc1C(F)F` (single isomer, unassigned; (+)) [Example 215, (+)-4-(4-{[2-(difluoromethyl)-4-(trifluoromethyl)phenoxy]methyl}-3-methoxyphenyl)-2H,4H,5H,6H,7H-pyrazolo[3,4-b]pyridin-6-one], for which the IC50 is 100 to 1000 nM.

As to `COc1cc(C2CC(=O)Nc3n[nH]cc32)ccc1COc1ccc(C(F)F)cc1C(F)F` (single isomer, unassigned; (+)) [Example 217, (+)-4-(4-{[2,4-bis(difluoromethyl)phenoxy]methyl}-3-methoxyphenyl)-2H,4H,5H,6H,7H-pyrazolo[3,4-b]pyridin-6-one], the IC50 is 100 to 1000 nM.

As for `COc1cc(C2CC(=O)Nc3n[nH]cc32)ccc1COc1ccc(C)cc1C` (single isomer, unassigned; (+)) [Example 219, (+)-4-{4-[(2,4-dimethylphenoxy)methyl]-3-methoxyphenyl}-2H,4H,5H,6H,7H-pyrazolo[3,4-b]pyridin-6-one], the IC50 was 100 to 1000 nM.

As for `COc1cc(C2CC(=O)Nc3n[nH]nc32)ccc1OCc1ccc(N)cc1C(F)(F)F` (single isomer, unassigned; (-)) [Example 206, (−)-7-(4-{[4-amino-2-(trifluoromethyl)phenyl]methoxy}-3-methoxyphenyl)-2H,4H,5H,6H,7H-[1,2,3]triazolo[4,5-b]pyridin-5-one], the IC50 was 10 to 100 nM.

As to `COc1cc(C2CC(=O)Nc3n[nH]cc32)ccc1COc1ccc(C(F)(F)F)cc1C(F)F` (single isomer, unassigned; (-)) [Example 216, (−)-4-(4-{[2-(difluoromethyl)-4-(trifluoromethyl)phenoxy]methyl}-3-methoxyphenyl)-2H,4H,5H,6H,7H-pyrazolo[3,4-b]pyridin-6-one], the IC50 is 10 to 100 nM.

In the case of `COc1cc(C2CC(=O)Nc3n[nH]cc32)ccc1OCc1ccccc1Cl` (stereo not drawn) [Example 2, 4-{4-[(2-chlorophenyl)methoxy]-3-methoxyphenyl}-2H,4H,5H,6H,7H-pyrazolo[3,4-b]pyridin-6-one], the IC50 was 10 to 100 nM.

Take `COc1cc(C2CC(=O)Nc3n[nH]cc32)ccc1OCc1ccccc1Br` (stereo not drawn) [Example 4, 4-{4-[(2-bromophenyl)methoxy]-3-methoxyphenyl}-2H,4H,5H,6H, 7H-pyrazolo[3,4-b]pyridin-6-one]: the IC50 was 10 to 100 nM.

With `COc1cc(C2CC(=O)Nc3n[nH]cc32)ccc1OCc1cccc(Br)c1` (stereo not drawn) [Example 11, 4-{4-[(3-bromophenyl)methoxy]-3-methoxyphenyl}-2H,4H,5H,6H, 7H-pyrazolo[3,4-b]pyridin-6-one], the IC50 was 100 to 1000 nM.

For `COc1cc(C2CC(=O)Nc3n[nH]cc32)ccc1OCc1cc(C(F)(F)F)ccc1C(F)(F)F` (stereo not drawn) [Example 14, 4-(4-{[2,5-bis(trifluoromethyl)phenyl]methoxy}-3-methoxyphenyl)-2H,4H,5H,6H, 7H-pyrazolo[3,4-b]pyridin-6-one], the IC50 was 10 to 100 nM.

As to `COc1cc(C2CC(=O)Nc3n[nH]cc32)ccc1OCc1ccccc1OC(F)F` (stereo not drawn) [Example 17, 4-(4-{[2-(difluoromethoxy)phenyl]methoxy}-3-methoxyphenyl)-2H,4H,5H,6H,7H-pyrazolo[3,4-b]pyridin-6-one], the IC50 was 10 to 100 nM.

In the case of `COc1cc(C2CC(=O)Nc3n[nH]cc32)ccc1OCc1ccccc1[N+](=O)[O-]` (stereo not drawn) [Example 18, 4-{3-methoxy-4-[(2-nitrophenyl)methoxy]phenyl}-2H,4H,5H,6H, 7H-pyrazolo[3,4-b]pyridin-6-one], the IC50 is 100 to 1000 nM.

On to `COc1cc(C2CC(=O)Nc3n[nH]cc32)ccc1OCc1c(F)cccc1C(F)(F)F` (stereo not drawn) [Example 21, 4-(4-{[2-fluoro-6-(trifluoromethyl)phenyl]methoxy}-3-methoxyphenyl)-2H,4H,5H,6H,7H-pyrazolo[3,4-b]pyridin-6-one], for which the IC50 is 100 to 1000 nM.

With `COc1cc(C2CC(=O)Nc3n[nH]cc32)ccc1OCc1cccc(Cl)c1Cl` (stereo not drawn) [Example 22, 4-{4-[(2,3-dichlorophenyl)methoxy]-3-methoxyphenyl}-2H,4H,5H,6H,7H-pyrazolo[3,4-b]pyridin-6-one], the IC50 is 100 to 1000 nM.

As for `COc1ccc([N+](=O)[O-])cc1COc1ccc(C2CC(=O)Nc3n[nH]cc32)cc1OC` (stereo not drawn) [Example 25, 4-{3-methoxy-4-[(2-methoxy-5-nitrophenyl)methoxy]phenyl}-2H,4H,5H,6H,7H-pyrazolo[3,4-b]pyridin-6-one], the IC50 is 100 to 1000 nM.

For the compound `COC(=O)c1ccccc1COc1ccc(C2CC(=O)Nc3n[nH]cc32)cc1OC` (stereo not drawn) [Example 26, methyl 2-(2-methoxy-4-{6-oxo-2H,4H,5H,6H,7H-pyrazolo[3,4-b]pyridin-4-yl}phenoxymethyl)benzoate], the IC50 was 10 to 100 nM.

With `COc1cc(C2CC(=O)Nc3n[nH]cc32)ccc1OCc1cccc(C(F)(F)F)c1F` (stereo not drawn) [Example 28, 4-(4-{[2-fluoro-3-(trifluoromethyl)phenyl]methoxy}-3-methoxyphenyl)-2H,4H,5H,6H,7H-pyrazolo[3,4-b]pyridin-6-one], the IC50 is 100 to 1000 nM.

For `COc1cc(C2CC(=O)Nc3n[nH]cc32)ccc1OCc1cc(Cl)ccc1Cl` (stereo not drawn) [Example 29, 4-{4-[(2,5-dichlorophenyl)methoxy]-3-methoxyphenyl}-2H,4H,5H,6H, 7H-pyrazolo[3,4-b]pyridin-6-one], the IC50 is 100 to 1000 nM.
